Measurements from the METLIN SMRT retention time set (Domingo-Almenara et al. 2019).

Assay: gradient 5% acetonitrile 3 min, to 50% in 2 min, to 85% in 15 min, held 3 min, 100 µL/min
Details: column: Zorbax Extend-C18 2.1 x 50 mm; eluents: water / acetonitrile, 0.1% formic acid
Summary of the method: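 Mixtures of ~100 pure standards were chromatographed on a Zorbax Extend-C18 column (2.1 × 50 mm, 1.8 μm) at 100 μL/min using water and acetonitrile, each with 0.1% formic acid. Detection used a quadrupole time-of-flight mass spectrometer in positive and negative ionization mode, and data collection spanned 3 months. Retention time was obtained from adduct peaks picked computationally and each checked manually.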

Compound	RP-LC retention time
CC(C)CCNC(=O)CCCn1c2ccccc2c2cnn(C)c(=O)c21	865 s
O=S(=O)(NC1CCN(Cc2ccccc2)CC1)c1cc(-c2cc(C(F)(F)F)on2)cs1	776 s
O=C(NCc1ccc2c(c1)OCO2)C1CC(=O)N(CCc2c[nH]c3ccc(F)cc23)C1 (stereo not drawn)	766 s
Cc1ccc(NC(=O)Cn2nc(N3CCCCCC3)c3ccccc3c2=O)c(C)c1	1100 s
O[C@@H]1CCCC[C@H]1N1CCC(c2ccccc2)CC1	661 s
CC1CCN(S(=O)(=O)c2ccc(-c3nnc(C(=O)NC4CCCCCC4)o3)cc2)CC1	1170 s
CCCn1nc(CNC(=O)Cc2cccs2)c2ccccc21	847 s
CCNc1cc(-n2cccn2)ncn1	666 s
CC(C)c1nnc(-c2ccc(S(=O)(=O)NC3CCCCC3)o2)o1	904 s
CCc1nc(OCC(=O)NCc2cccc(C)c2)c2c(C)c(C)oc2n1	947 s
CCCNC(=O)CSc1nc2nc(C)cc(C)n2n1	611 s
COc1ccc2[nH]cc(CCNC(=O)CC3CCN(S(=O)(=O)c4ccc(Cl)s4)CC3)c2c1	905 s
CC(C)C(=O)Nc1ccc2c(c1)nc(CN1CCN(C(=O)c3ccco3)CC1)n2C	605 s
CCCNC(=O)C1CCCN(c2ccc(SCC(=O)NCc3ccc(C)cc3)nn2)C1 (stereo not drawn)	656 s
O=C1NCCCn2cc(S(=O)(=O)NCc3cccc(C(F)(F)F)c3)cc21	718 s
O=C1CCCN1c1ccc(Cn2cccc(S(=O)(=O)N3CCCC3)c2=O)cc1	696 s
COc1ccccc1C(=O)N1CCCC1c1c(C)noc1C (stereo not drawn)	693 s
O=C1Nc2ccccc2SC1C(=O)N1CCC(C(=O)N2CCN(c3ccccc3)CC2)CC1 (stereo not drawn)	766 s

Compound	RP-LC retention time
CC1(C)CN(C(=O)C2CC2)c2ccc(S(=O)(=O)N3CCN(c4ccccn4)CC3)cc21	692 s
CCOc1ccc(CC(=O)N2CCN(c3cc(CC)n4cnnc4n3)CC2)cc1	634 s
Cc1ccc(CNC(=O)c2cc3n(n2)CC(C)(C(=O)NCCC(C)C)N(C)C3=O)cc1 (stereo not drawn)	802 s
NC(=O)C1CCN(C(=O)NC2CCCCC2)CC1	584 s
CN(C)C(=O)C1CCN(c2nc3ccc(-c4ccsc4)nc3s2)CC1	839 s
Cn1c(N2CCCC(C(=O)NCC3CCN(Cc4ccc(F)cc4)CC3)C2)cc(=O)n(C)c1=O (stereo not drawn)	590 s
COCc1cnc2c(c1SCc1ccc(F)cc1)c(=O)n(C)c(=O)n2C	997 s
CCc1ccc(-c2cc(C(=O)N3CCCN(c4cc(=O)n(C(C)C)c(=O)n4C(C)C)CC3)[nH]n2)cc1	946 s
CC(=O)Nc1c(C)noc1/C=C/c1ccc(S(=O)(=O)N2CCC(C)CC2)s1	869 s
CN(C)C[C@@H]1CN(c2ncccn2)C[C@H]1NC(=O)c1ccc(Cl)s1	605 s
Cc1nc(-c2csc(S(=O)(=O)N3CCC(C(=O)NCC4CCCO4)CC3)c2)no1 (stereo not drawn)	725 s
Cc1c(C(=O)NC2CCCC2)cnn1-c1cc(-c2nc(C(C)(C)C)no2)ccn1	1130 s
CCc1nc2cc(N3CCC(C(=O)NC(C)CC)CC3)cnc2nc1CC (stereo not drawn)	758 s
O=C(CN1C(=O)C2CCCCN2c2ccc(C(=O)N3CCCCC3)cc21)NC1CCCC1 (stereo not drawn)	828 s
COCCNC(=O)c1cc2c(n(-c3ccc(F)cc3)c1=O)CCCC2=O	701 s
CCOC(=O)c1c(S(=O)(=O)N2CCC(C(=O)Nc3cccc(CC)c3)CC2)c(C)n(CC)c1C	984 s
O=C(Cn1nc(C(=O)N2CCCC2)c2ccccc21)N1CCC(N2CCCCC2)CC1	581 s

Continued, values first:

RP-LC retention time	Compound
812 s	CCOC(=O)Cc1ccc(NC(=O)NC2CCN(c3ccc(F)cc3)C2=O)cc1 (stereo not drawn)
905 s	CC(=O)Nc1onc(C)c1-c1ccc(C)c(S(=O)(=O)N(C)Cc2ccccc2)c1
1170 s	COC(=O)c1cc(C)nc2c1c(=O)n(Cc1cccc(C)c1)c(=O)n2Cc1ccco1
789 s	CCOC(=O)Cc1ccc(NC(=O)N2CCN(c3ccc(=O)n(-c4ccc(F)cc4)n3)CC2)cc1
709 s	Cc1noc(-c2ccc(-n3ncc(C(=O)NC4CC4)c3C)nc2)n1
746 s	CCOCCCNC(=O)c1nc(Nc2ccc(C)cc2)c2ccccc2n1
667 s	O=C(Nc1cccc(-c2cn3c(n2)SCC3)c1)c1cc(-c2ccco2)on1
981 s	CCOC(=O)C1CCN(c2nc(-c3ccc(OC)cc3)no2)CC1
796 s	CCn1c(CCC(=O)NCc2ccc(C)cc2)nc2ccccc2c1=O
1230 s	COC(=O)c1ccccc1NC(=O)c1nnn(-c2cc(C)ccc2Cl)c1C
1010 s	CCn1c(=O)n(CC(=O)N2CCCC2)c(=O)c2cnc(-c3ccc(Cl)cc3)nc21
898 s	Cc1nc(C#Cc2ccnc(Cl)c2)c(C)n1-c1ccc(OC(F)(F)F)cc1
753 s	O=C(NCc1ccco1)C1CCN(C(=O)c2ncn3c2COC(c2ccc(Cl)cc2)C3)CC1 (stereo not drawn)
754 s	COc1ccc(OC)c(-c2ccc(SCC(=O)Nc3cc(C)no3)nn2)c1
733 s	CC1CCN(CCCNS(=O)(=O)c2ccccc2-c2nc(-c3ccccc3)no2)CC1
701 s	O=c1ccnc(Nc2ccc(Cl)cc2)[nH]1
718 s	CCOc1ccc(S(=O)(=O)Nc2cc(-c3cn4ccc(C)cc4n3)ccc2C)cc1
927 s	Cc1nc2cc(-c3noc(-c4ccco4)n3)ccc2n(C2CCCC2)c1=O
1020 s	Cc1ccc(NC(=O)Cn2c(=O)cc(-c3nc(C4CC4)no3)c3ccccc32)cc1F
905 s	COC(=O)c1cccc(Nc2c(-c3ccc(Cl)cc3)nc3cnccn23)c1
1070 s	O=C(Cn1cccc1-c1nc(-c2ccc3c(c2)OCO3)no1)Nc1ccc(Cl)cc1
901 s	COC(=O)C1=C(C)NC2=C(C(=O)c3ccccc32)C1c1ccccc1OC (stereo not drawn)
890 s	CCCn1cc(S(=O)(=O)CC(=O)Nc2ccc(C(=O)OCC)cc2)c2ccccc21
610 s	O=C(Cc1c[nH]c2ccccc12)N1CCN(C(=O)c2cc(-c3cccnc3)n[nH]2)CC1
1280 s	CCCCC(=O)Nc1ccc(-c2nc(-c3cc(C)ccc3C)co2)cc1
960 s	CN1CCCN(C(=O)COc2ccc(Cl)cc2)c2ccccc21
684 s	Cc1ccn2c(NC(=O)c3ccc([N+](=O)[O-])cc3)c(-c3ccc(F)cc3)nc2c1

RP-LC retention time	Compound
1050 s	COc1cccc(-c2noc(CN3C(=O)COc4cc(C)ccc43)n2)c1
720 s	Cc1ccc(-c2cn3cccnc3n2)cc1NC(=O)CC1CCCCC1
921 s	CCc1nn2c(CNS(=O)(=O)c3ccccc3C)c(-c3ccccc3)nc2s1
812 s	CC1CCN(c2nc(=O)n(CC(=O)Nc3ccc4c(c3)OCCO4)c3ccccc23)CC1
985 s	O=C(Nc1ccc(F)cc1)Nc1nccn(-c2ccc(Br)cc2)c1=O
624 s	O=C1CC(c2ccccc2)Cc2nc(N3CCN(c4ccccn4)CC3)ncc21 (stereo not drawn)
921 s	COc1cc(CC(=O)N2CCc3cc(-c4ccno4)ccc32)cc(OC)c1
813 s	O=C(NCc1ccc(F)cc1)N1CCC(c2noc(-c3ccccn3)n2)C1 (stereo not drawn)
616 s	CC(=O)N1CCc2cc(-c3ccc(C(=O)NCCCN4CCCCC4)cc3)ccc21
668 s	CN(C)CCn1nnc2cc(-c3noc(Cc4cccc(F)c4)n3)ccc21
783 s	Cc1cc(C)c(CNC(=O)c2cn3ccccc3n2)c(C)c1
850 s	CCc1cccc(C)c1N(C(=O)Cn1c(COC)nc2ccccc21)C(C)COC (stereo not drawn)
757 s	Cc1ccc(-c2cc3c(=O)n(Cc4noc(CN5CCCCCCC5)n4)ccn3n2)cc1
757 s	Cn1nc(CNC(=O)c2ccccc2Br)c2ccccc21
797 s	Cc1ccc(N2CC(c3noc(-c4ccccn4)n3)CC2=O)cc1 (stereo not drawn)
872 s	CCc1noc(NC(C)=O)c1-c1ccc(C)c(S(=O)(=O)Nc2ccc(F)cc2Cl)c1
972 s	Cc1ccc(NC(=O)N2CCCC2c2nc(-c3ccc(F)cc3F)no2)cc1 (stereo not drawn)
1330 s	CCn1cc(-c2nc(C(=O)Nc3cc(F)ccc3Cl)cs2)c2cccnc21
577 s	NS(=O)(=O)c1ccc(CCNC(=O)C2CCCN(c3nc4ccccc4[nH]3)C2)cc1 (stereo not drawn)
701 s	Cc1ccn2c(Nc3ccccc3C)c(-c3ccccc3O)nc2c1
971 s	CSc1ccc(CCNC(=O)C2CCCN(C(=O)Cc3cccc4ccccc34)C2)cc1 (stereo not drawn)
742 s	O=S(=O)(Nc1cccn2ncnc12)c1ccccc1Cl
922 s	O=c1n(Cc2ccc3c(c2)OCO3)nc2c(S(=O)(=O)N3CCc4ccccc4C3)cccn12
822 s	O=C(O)c1cn(Cc2cccc(F)c2)c(=O)c2ccccc12
1110 s	O=C(Nc1ccc2ccccc2c1)N1CCN(c2ncc(C(F)(F)F)cc2Cl)CC1
1210 s	Cc1ccc(C(=O)COc2cc(O)c3c(=O)cc(-c4ccccc4)oc3c2)cc1
